Source: article PMC8605241, “Coevolution of the bacterial pheromone ComS and sensor ComR fine-tunes natural transformation in streptococci” (The Journal of Biological Chemistry, 2021)
Residues, ends and D or L forms follow the SMILES beside them.

How the values were obtained:
ComRSth WT = ComRSth WT (Streptococcus thermophilus, UniProt A0A1L1QK15); type: cell-based; conditions: for EC50: read-out: EC50 of PcomS activity (maximum specific luciferase activity), synthetic 8-aa peptide added to S. thermophilus ΔcomS reporter strain (PcomS-luxAB), Hill fit, mean ± SD of at least three independent replicates, SD; for effect of XIP-5 substitution on activation (titration of synthetic XIPSth variants): compared with XIPSth WT (A5), PcomS-luxAB
Description: (§1) Luciferase assays were performed as previously described ([19]). Overnight precultures were diluted to a final OD600 of 0.05 and culture samples incubated in a sterile covered white microplate with a transparent bottom (Greiner). Growth and luciferase activity (expressed in relative light units [RLUs]) of the cultures were monitored after addition or in absence of synthetic XIP peptide at 10 min intervals during at least 8 h in a multiwell plate reader (Hidex Sense, Hidex). When peptides were titrated, 0, 0.78, 1.56, 3.12, 6.25, 12.5, 25, 50, 100, and 1000 nM were added to the medium.

ComRSth [1] = biological target: T1, ComRSth (Streptococcus thermophilus, UniProt A0A1L1QK15); assay: biochemical; conditions: SD
Description: In the case of competition assays, a fixed concentration of ComR (250 nM) and FITC N-labeled XIP peptide (30 nM) were incubated with twofold serial dilutions of unlabeled XIP variant (initial concentration of 5 μM). Plots were fitted by using GraphPad Prisma software to calculate IC50 values (half-maximal inhibitory peptide concentration).

ComRSve WT = assay: PcomS-luxAB luciferase reporter assay, S. thermophilus strain with ComRSth replaced by ComRSve; type: cell-based, Streptococcus vestibularis; conditions: reporter strain carrying ComRSve; for decrease of activation compared with wild-type XIPSve: synthetic peptide
Description: as §1

ComR-F171A = assay: PcomS-luxAB luciferase reporter assay, ComR-F171A strain; type: cell-based, Streptococcus thermophilus; conditions: substitution added to XIP-L1A; ComR-F171A mutant strain
Description: Luciferase assays were performed as previously described ([19]). Overnight precultures were diluted to a final OD600 of 0.05 and culture samples incubated in a sterile covered white microplate with a transparent bottom (Greiner). Growth and luciferase activity (expressed in relative light units [RLUs]) of the cultures were monitored after addition or in absence of synthetic XIP peptide at 10 min intervals during at least 8 h in a multiwell plate reader (Hidex Sense, Hidex). When peptides were titrated, 0, 0.78, 1.56, 3.12, 6.25, 12.5, 25, 50, 100, and 1000 nM were added to the medium. In order to calculate EC50 values (peptide concentration for a half maximum response), maximum luciferase activity values were fitted to Hill equation: L=Lmax×[XIP]^n/(EC50)^n+[XIP]^n where L is the luciferase activity, [XIP] is the XIP concentration, and n is the Hill coefficient. Curves were fitted with the GraphPad Prism software v.9.0.1 (GraphPad Software, Inc).

[2] = biological target: FITC N-labeled XIP-A5M peptide (9 aa) (Streptococcus thermophilus); assay: fluorescence polarisation; 30 nM FITC N-labeled 9-aa XIP peptide, threefold serial dilutions of purified ComR from 1 uM, 10 min at 30 °C, 96-well plates; EC50 by Hill fit
ComRSth [3] = biological target: T1, ComRSth; assay: Single-molecule force spectroscopy (AFM); type: binding; conditions: polyG-linked peptide grafted on AFM tip, ComRSth on gold-coated coverslip
Description: Gold-coated glass coverslips and cantilevers (OMCL-TR4, Olympus Ltd; nominal spring constant ∼0.02 N m^−1) were immersed overnight in an ethanol solution containing 1 mM of 10% 16- […]/90% 1-mercapto-1-undecanol (Sigma), rinsed with ethanol and dried with N2. Substrates and cantilevers were then immersed for 30 min into a solution containing 10 mg ml^−1 N-hydroxysuccinimide (NHS) and 25 mg ml^−1 1-ethyl-3-(3-dimethylaminopropyl)-carbodiimide (EDC) (Sigma), rinsed with Ultrapure water (ELGA LabWater), incubated with 0.1 mg ml^−1 ComR or polyG-XIPSth, polyG-XIP-A5M, or polyG-XIPSve peptides for 1 h, rinsed further with PBS buffer, and then immediately used without dewetting.
For experiments of single-molecule force spectroscopy, ComR-functionalized surfaces and functionalized cantilevers with polyG-peptides were prepared as described above. Measurements were performed at room temperature in PBS with a Force Robot 300 AFM (JPK Instruments). Multiple (32 × 32) force–distance curves were recorded on areas of 500 by 500 nm^2 with an applied force of 250 pN, a constant approach, and retraction speed of 1000 nm s^−1. […] The spring constants of the cantilevers were measured by the thermal noise method ([50]). Data were analyzed with the data processing software from JPK Instruments.

[4] = biological target: ComRSth-StreptagII protein (Streptococcus thermophilus ComR) (Streptococcus thermophilus)
[5] = biological target: T2, ComRSth-StreptagII protein (Streptococcus thermophilus ComR) (Streptococcus thermophilus); assay: FP; competition with FITC-XIP-A5M
T2 chain: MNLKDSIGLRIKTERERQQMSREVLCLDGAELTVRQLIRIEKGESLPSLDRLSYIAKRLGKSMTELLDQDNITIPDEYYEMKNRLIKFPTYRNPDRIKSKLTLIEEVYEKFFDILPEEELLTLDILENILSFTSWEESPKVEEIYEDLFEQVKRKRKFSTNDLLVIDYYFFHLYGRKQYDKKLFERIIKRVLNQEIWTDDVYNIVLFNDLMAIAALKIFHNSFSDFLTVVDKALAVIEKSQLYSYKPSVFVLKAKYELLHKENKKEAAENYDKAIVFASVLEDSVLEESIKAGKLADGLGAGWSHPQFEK

Molecule: CSCC[C@H](NC(=O)[C@H](Cc1ccccc1)NC(=O)[C@H](Cc1ccc(O)cc1)NC(=O)[C@@H]1CCCN1C(=O)[C@@H](N)C(C)C)C(=O)NCC(=O)N[C@@H](CS)C(=O)N[C@@H](CC(C)C)C(=O)O [XIP-L1V-A5M] (H-VPYFMGCL-OH)
- EC50 (ComRSth WT): 1.36 ± 0.33 nM
- EC50 compared with wild-type XIPSth (ComRSth WT; synthetic peptide, ΔcomS reporter strain, PcomS as proxy): approximately fourfold lower

Molecule: CC(C)C[C@H](NC(=O)[C@H](CS)NC(=O)CNC(=O)[C@H](C)NC(=O)[C@H](Cc1ccccc1)NC(=O)[C@H](Cc1ccc(O)cc1)NC(=O)[C@@H]1CCCN1C(=O)[C@@H](N)CC(C)C)C(=O)O [XIPSth, reference compound] (H-LPYFAGCL-OH)
- EC50 (ComRSth WT): 4.4 ± 1.12 nM
- IC50 (ComRSth [1]): 254 ± 49.7 nM

Molecule: APFFMIYY [XIPSve-V1A]
- decrease of activation compared with wild-type XIPSve (ComRSve WT): ~130 fold

Molecule: APYFMGCL [XIPSth-L1A-A5M]
- increased activation (fold change in EC50) with XIP-L1A as reference (ComR-F171A): 1.3 fold
- increased activation (fold change in EC50) with XIP-L1A (A1–A5) as reference (ComRSth WT; substitution added to XIP-L1A, ComRSth WT reporter strain): 10.4 fold

Molecule: ComRSth-StreptagII protein (Streptococcus thermophilus ComR) (natural protein)
- fold lower EC50 than FITC-XIPSth [2]: 2 fold

Molecule: LPYFIGCL [XIP-A5I]
- effect of XIP-5 substitution on activation (titration of synthetic XIPSth variants) (ComRSth WT; ΔcomS reporter strain): improved transcriptional activation but at a lower level than A5M

Molecule: LPYFTGCL [XIP-A5T]
- effect of XIP-5 substitution on activation (titration of synthetic XIPSth variants) (ComRSth WT; ΔcomS reporter strain): neutral

Molecule: PFFMIYY [XIPSve-ΔV1, 7-aa XIPSve variant PFFMIYY]
- activation of ComRSve (in words) (ComRSve WT; synthetic 7-aa peptide): completely abolished

Molecule: PYFAGCL [XIPSth-ΔL1]
- decrease of activity (fold less active) (ComRSth WT; synthetic 7-aa peptide, ComRSth WT reporter strain): ~90 fold

Molecule: VPFFAIYY [XIPSve-M5A]
- decrease of activation compared with wild-type XIPSve (ComRSve WT): ~40 fold

Molecule: VPFFMIYY [XIPSve]
- binding frequency / binding probability (ComRSth [3]): ~2%
- median binding (adhesion) force (ComRSth [3]; PBS, room temperature, about 1000 curves per surface): 58 pN

Molecule: XIP-L1A-A5M (synthetic octapeptide)
- P (comS)-luxAB luciferase reporter in S. thermophilus cells producing ComRSth WT; fold change in EC50 against the reference XIP-L1A (substitution A5M) [4]: 10.4 fold

Molecule: LPYFAGCL [XIPSth (Streptococcus thermophilus XIP, synthetic octapeptide)]
- IC50 [5]: 254 nM
- P (comS)-luxAB luciferase reporter in S. thermophilus cells producing ComRSth WT; fold change in EC50 against the reference XIP-L1A (substitution A1L) [4]: 2.7 fold

Molecule: PYFAGCL [XIPSth-ΔL1 (7 aa)]
- P (comS)-luxAB luciferase reporter in S. thermophilus cells producing ComRSth WT; activity against XIPSth WT (fold less active) [4]: 90
